Columns and labels:
VCaP cells = experiment: Cellular growth inhibition assay for VCaP cells, CellTiter-Glo; format: cell-based, human; settings: 72 hours treatment, CellTiter-Glo 2.0
Procedure, shortened: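 GI50 values come from four-parameter curve fits of luminescence data normalized to a zero baseline. Compound, in medium with 0.5% DMSO, was added one day after plating and left for 72 h before CellTiter-Glo 2.0 addition.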

T47D cells = experiment: Cellular growth inhibition assay for T47D cells, CellTiter-Glo; format: cell-based, human; settings: 72 hours treatment, CellTiter-Glo 2.0 cell viability
Procedure, shortened: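 Luminescence from CellTiter-Glo 2.0 after 72 h of compound exposure gives the viability signal. Cells grew in insulin-supplemented (0.2 units/mL) DMEM with 10% FBS and were treated one day after seeding at 0.5% DMSO. GI50 values come from four-parameter nonlinear regression.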

[1] = system: T-Rex 293 cell line SC3 cells having increased expression of androgen receptor protein due to exposure to doxycycline; experiment: Cellular growth inhibition, T-Rex 293 SC3 cells with doxycycline (androgen receptor induced), CellTiter-Glo; format: cell-based; settings: T-Rex 293 SC3 cells with 10 ng/mL doxycycline (increased androgen receptor expression)
Procedure, shortened: (§1)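 With DMSO (0.5%) vehicle as negative control, compounds treated SC3 cells for 72 h in medium containing charcoal-dextran FBS ± doxycycline. This T-Rex 293 clone expresses transfected wild-type AR on induction. Readout: CellTiter-Glo 2.0; GI50 by nonlinear regression.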

[2] = system: T-Rex 293 cell line SC3 cells lacking increased expression of androgen receptor protein; experiment: Cellular growth inhibition, T-Rex 293 SC3 cells without doxycycline, CellTiter-Glo; format: cell-based; settings: T-Rex 293 SC3 cells not exposed to doxycycline, CellTiter-Glo 2.0
Procedure, shortened: as §1

| SMILES | GI50 (VCaP cells; Homo sapiens, VCaP, 72 h) [nM] | GI50 (T47D cells; Homo sapiens, T47D, 72 h) [nM] | GI50 ([1]; 72 h) [nM] | GI50 ([2]; 72 h) [nM] | GI50 ([1]; 72 hours) [nM] | GI50 (VCaP cells) [nM] | GI50 (T47D cells) [nM] | GI50 ([2]; 72 hours) [nM] |
| --- | --- | --- | --- | --- | --- | --- | --- | --- |
| Cc1sc2c(c1C)C(c1ccc(CCC3CCN(c4ncc(C(=O)N[C@H]5C(C)(C)[C@H](Oc6ccc(C#N)c(Cl)c6)C5(C)C)cn4)CC3)cc1)=N[C@@H](Cc1ncco1)c1nnc(C)n1-2 [Compound I-132] | < 500 | < 500 | < 500 | > 3000 |  |  |  |  |
| Cc1sc2c(c1C)C(c1ccc(CC3CC4(CCN(c5ccc(C(=O)N[C@H]6C(C)(C)[C@H](Oc7ccc(C#N)c(Cl)c7)C6(C)C)nc5)CC4)C3)cc1)=N[C@@H](C)c1nnc(C)n1-2 [Compound I-447] | 500 to 1500 | < 500 | < 500 | > 3000 |  |  |  |  |
| Cc1sc2c(c1C)C(c1ccc(C(=O)N3CCC(C(=O)c4ncc(C(=O)N[C@H]5C(C)(C)[C@H](Oc6ccc(C#N)c(Cl)c6)C5(C)C)cn4)CC3)cc1)=N[C@@H](Cc1ncco1)c1nnc(C)n1-2 [Compound I-381] | > 3000 | > 3000 |  | > 3000 | > 3000 |  |  |  |
| COCC[C@@H]1N=C(c2ccc(OC3CC4(CCCN(c5ncc(C(=O)N[C@H]6C(C)(C)[C@@H](Oc7ccc(C#N)c(Cl)c7)C6(C)C)cn5)C4)C3)cc2)c2c(sc(C)c2C)-n2c(C)nnc21 [Compound I-570] |  |  |  |  | < 500 | < 500 | > 3000 | > 3000 |
| Cc1sc2c(c1C)C(c1ccc(C[C@@H]3CC[C@@]4(CCCN(c5ncc(C(=O)N[C@H]6C(C)(C)[C@H](Oc7ccc(C#N)c(Cl)c7)C6(C)C)cn5)C4)C3)cc1)=N[C@@H](Cc1ncco1)c1nnc(C)n1-2 [Compound I-164] | 500 to 1500 | 500 to 1500 | < 500 | > 3000 |  |  |  |  |
| Cc1sc2c(c1C)C(c1ccc(OC[C@H]3C[C@@]4(CCCN(c5ncc(C(=O)N[C@H]6C(C)(C)[C@H](Oc7ccc(C#N)c(Cl)c7)C6(C)C)cn5)C4)C3)cc1)=N[C@@H](C)c1nnc(C)n1-2 [Compound I-351] | < 500 | > 3000 | < 500 | > 3000 |  |  |  |  |
| Cc1sc2c(c1C)C(c1ccc(N3CC(C4CCN(c5ncc(C(=O)N[C@H]6C(C)(C)[C@H](Oc7ccc(C#N)c(Cl)c7)C6(C)C)cn5)C4)C3)cc1)=N[C@@H](C)c1nnc(C)n1-2 (stereo partly drawn) [Compound I-617] |  |  |  |  | < 500 | < 500 | < 500 | < 500 |
| CNc1ccc2c(n1)C(c1ccc(OC3CC4(CCN(c5ncc(C(=O)N[C@H]6C(C)(C)[C@H](Oc7ccc(C#N)c(Cl)c7)C6(C)C)cn5)CC4)C3)cc1)=NCc1onc(C)c1-2 [Compound I-232] | < 500 | < 500 | < 500 | > 3000 |  |  |  |  |
| Cc1sc2c(c1C)C(c1ccc(CC3CC(OC4CCN(c5ncc(C(=O)N[C@H]6C(C)(C)[C@H](Oc7ccc(C#N)c(Cl)c7)C6(C)C)cn5)CC4)C3)cc1)=N[C@@H](C)c1nnc(C)n1-2 (stereo partly drawn) [Compound I-445] |  | < 500 | < 500 | > 3000 |  | < 500 |  |  |
| Cc1sc2c(c1C)C(c1ccc(C3CC(C4CCN(c5cnc(C(=O)N[C@H]6C(C)(C)[C@H](Oc7ccc(C#N)c(Cl)c7)C6(C)C)cn5)CC4)C3)cc1)=NC(C)c1nnc(C)n1-2 (stereo partly drawn) [Compound I-470] |  |  |  |  | < 500 | < 500 | 500 to 1500 | > 3000 |
| Cc1sc2c(c1C)C(c1ccc(CN3CC4(CCCN(c5ncc(C(=O)N[C@H]6C(C)(C)[C@H](Oc7ccc(C#N)c(Cl)c7)C6(C)C)cn5)C4)C3)cc1)=NC(Cc1ncco1)c1nnc(C)n1-2 (stereo partly drawn) [Compound I-138] | < 500 | 500 to 1500 | < 500 | 1500 to 3000 |  |  |  |  |
| Cc1sc2c(c1C)C(c1ccc(C[C@@H]3CC[C@]4(C3)CN(c3ncc(C(=O)N[C@H]5C(C)(C)[C@H](Oc6ccc(C#N)c(Cl)c6)C5(C)C)cn3)CCO4)cc1)=N[C@H](Cc1ncco1)c1nnc(C)n1-2 [Compound I-312] | < 500 | 1500 to 3000 | < 500 | < 500 |  |  |  |  |
| Cc1sc2c(c1C)C(c1ccc(-c3conc3OC3CCN(c4ncc(C(=O)N[C@H]5C(C)(C)[C@H](Oc6ccc(C#N)c(Cl)c6)C5(C)C)cn4)CC3)cc1)=N[C@@H](Cc1ncco1)c1nnc(C)n1-2 [Compound I-432] | < 500 | > 3000 | < 500 | > 3000 |  |  |  |  |
| COCC[C@@H]1N=C(c2ccc(OC3CC4(C3)CC3(CCN(c5ncc(C(=O)N[C@H]6C(C)(C)[C@H](Oc7ccc(C#N)c(Cl)c7)C6(C)C)cn5)CC3)C4)cc2)c2c(sc(C)c2C)-n2c(C)nnc21 [Compound I-584] | < 500 | < 500 | < 500 | > 3000 |  |  |  |  |
| Cc1sc2c(c1C)C(c1ccc(OC3CC4(CCN(c5ccc(C(=O)N[C@H]6C(C)(C)[C@H](Oc7ccc(C#N)c(Cl)c7)C6(C)C)cc5)CC4)C3)cc1)=N[C@@H](Cc1ncco1)c1nnc(C)n1-2 [Compound I-196] | 500 to 1500 | < 500 | < 500 | > 3000 |  |  |  |  |
| Cc1sc2c(c1C)C(c1ccc(C(=O)N3CCN(C(=O)c4ncc(C(=O)N[C@H]5C(C)(C)[C@H](Oc6ccc(C#N)c(Cl)c6)C5(C)C)cn4)CC3)cc1)=N[C@@H](Cc1ncco1)c1nnc(C)n1-2 [Compound I-285] | > 3000 | > 3000 | > 3000 | > 3000 |  |  |  |  |
| Cc1sc2c(c1C)C(c1ccc(-c3csc(OC4CCN(c5ncc(C(=O)N[C@H]6C(C)(C)[C@H](Oc7ccc(C#N)c(Cl)c7)C6(C)C)cn5)CC4)n3)cc1)=N[C@@H](Cc1ncco1)c1nnc(C)n1-2 [Compound I-408] | 500 to 1500 | < 500 | < 500 | > 3000 |  |  |  |  |
| Cc1sc2c(c1C)C(c1ccc(NCC3CCN(c4ncc(C(=O)N[C@H]5C(C)(C)[C@H](Oc6ccc(C#N)c(Cl)c6)C5(C)C)cn4)CC3)cc1)=N[C@@H](Cc1ncco1)c1nnc(C)n1-2 [Compound I-636] | < 500 | < 500 | < 500 | < 500 |  |  |  |  |
| Cc1sc2c(c1C)C(c1ccc(N3CC4(CCC(Cc5ncc(C(=O)N[C@H]6C(C)(C)[C@H](Oc7ccc(C#N)c(Cl)c7)C6(C)C)cn5)CC4)C3)cc1)=N[C@@H](Cc1ncco1)c1nnc(C)n1-2 [Compound I-458] | < 500 | < 500 | < 500 | < 500 |  |  |  |  |
| Cc1sc2c(c1C)C(c1ccc(N3CCC(CC4CCN(c5ncc(C(=O)N[C@H]6C(C)(C)[C@H](Oc7ccc(C#N)c(Cl)c7)C6(C)C)cn5)CC4)CC3)cc1)=N[C@H](Cc1ncco1)c1nnc(C)n1-2 [Compound I-211] | < 500 | < 500 | < 500 | 500 to 1500 |  |  |  |  |
| Cc1sc2c(c1C)C(c1ccc([C@@H]3CC[C@@]4(C3)CN(c3ncc(C(=O)N[C@H]5C(C)(C)[C@H](Oc6ccc(C#N)c(Cl)c6)C5(C)C)cn3)CCO4)cc1)=N[C@@H](Cc1ncco1)c1nnc(C)n1-2 [Compound I-406] | < 500 | < 500 | < 500 | > 3000 |  |  |  |  |
| Cc1sc2c(c1C)C(c1ccc(Cl)cc1)=N[C@@H](CC(=O)NCCCOC1CCN(c3ncc(C(=O)N[C@H]4C(C)(C)[C@H](Oc5ccc(C#N)c(Cl)c5)C4(C)C)cn3)CC1)c1nnc(C)n1-2 [Compound I-20] | 500 to 1500 | 500 to 1500 | < 500 | 500 to 1500 |  |  |  |  |
| Cc1sc2c(c1C)C(c1ccc(N(C)CC(=O)N3CCC(c4ncc(C(=O)N[C@H]5C(C)(C)[C@H](Oc6ccc(C#N)c(Cl)c6)C5(C)C)cn4)CC3)cc1)=N[C@H](Cc1ncco1)c1nnc(C)n1-2 [Compound I-356] | < 500 | 500 to 1500 | < 500 | > 3000 |  |  |  |  |
| Cc1sc2c(c1C)C(c1ccc(N(C)CC(=O)N3CCC(c4ncc(C(=O)N[C@H]5C(C)(C)[C@H](Oc6ccc(C#N)c(Cl)c6)C5(C)C)cn4)CC3)cc1)=N[C@@H](Cc1ncco1)c1nnc(C)n1-2 [Compound I-355] | > 3000 | > 3000 | > 3000 | > 3000 |  |  |  |  |
| Cc1sc2c(c1C)C(c1ccc(C[C@H]3C[C@@]4(CN(c5ncc(C(=O)N[C@H]6C(C)(C)[C@H](Oc7ccc(C#N)c(Cl)c7)C6(C)C)cn5)CCO4)C3)cc1)=N[C@@H](Cc1ncco1)c1nnc(C)n1-2 [Compound I-244] | > 3000 | > 3000 | < 500 | > 3000 |  |  |  |  |
| Cc1sc2c(c1C)C(c1ccc(OCCOC3CCN(c4ncc(C(=O)N[C@H]5C(C)(C)[C@H](Oc6ccc(C#N)c(Cl)c6)C5(C)C)cn4)CC3)cc1)=N[C@@H](CC(=O)NC(C)C)c1nnc(C)n1-2 [Compound I-65] | < 500 | 500 to 1500 | < 500 | < 500 |  |  |  |  |
| Cc1sc2c(c1C)C(c1ccc(N(C)CC(=O)NCc3ncc(C(=O)N[C@H]4C(C)(C)[C@H](Oc5ccc(C#N)c(Cl)c5)C4(C)C)cn3)cc1)=N[C@H](Cc1ncco1)c1nnc(C)n1-2 [Compound I-374] | < 500 | 500 to 1500 | > 3000 | > 3000 |  |  |  |  |
